According to ChEMBL document CHEMBL3044659, “Docking, synthesis, and pharmacological evaluation of isoindoline derivatives as anticonvulsant agents” (Med Chem Res, 2013):
pKi: −log10 of the molar value. The source made the active and inactive calls.

Key:
[1] = molecular target: Sodium channel protein type 2 subunit alpha (Homo sapiens, UniProt Q99250); assay: Binding affinity to Nav 1.2 (unknown origin)
[2] = system: Mus musculus; assay: Anticonvulsant activity in pentylenetetrazole-induced seizure Swiss Mus musculus (mouse) model assessed as increase in clonic seizure threshold at 40 mg/kg, ip measured after 30 min (reference value: 38.9 +/-1.01 mg/kg); format: functional; conditions: route intraperitoneal
[3] = system: Mus musculus; assay: Anticonvulsant activity in pentylenetetrazole-induced seizure Swiss Mus musculus (mouse) model assessed as increase in tonic seizure threshold at 40 mg/kg, ip measured after 30 min (reference value: 59.58 +/-1.01 mg/kg); format: functional; conditions: route intraperitoneal
[4] = system: Mus musculus; assay: Anticonvulsant activity in pentylenetetrazole-induced seizure Swiss Mus musculus (mouse) model assessed as increase in clonic seizure threshold at 10 to 20 mg/kg, ip measured after 30 min; format: functional, organism-based

Sodium channel protein type 2 subunit alpha, sequence (Q99250 whole entry): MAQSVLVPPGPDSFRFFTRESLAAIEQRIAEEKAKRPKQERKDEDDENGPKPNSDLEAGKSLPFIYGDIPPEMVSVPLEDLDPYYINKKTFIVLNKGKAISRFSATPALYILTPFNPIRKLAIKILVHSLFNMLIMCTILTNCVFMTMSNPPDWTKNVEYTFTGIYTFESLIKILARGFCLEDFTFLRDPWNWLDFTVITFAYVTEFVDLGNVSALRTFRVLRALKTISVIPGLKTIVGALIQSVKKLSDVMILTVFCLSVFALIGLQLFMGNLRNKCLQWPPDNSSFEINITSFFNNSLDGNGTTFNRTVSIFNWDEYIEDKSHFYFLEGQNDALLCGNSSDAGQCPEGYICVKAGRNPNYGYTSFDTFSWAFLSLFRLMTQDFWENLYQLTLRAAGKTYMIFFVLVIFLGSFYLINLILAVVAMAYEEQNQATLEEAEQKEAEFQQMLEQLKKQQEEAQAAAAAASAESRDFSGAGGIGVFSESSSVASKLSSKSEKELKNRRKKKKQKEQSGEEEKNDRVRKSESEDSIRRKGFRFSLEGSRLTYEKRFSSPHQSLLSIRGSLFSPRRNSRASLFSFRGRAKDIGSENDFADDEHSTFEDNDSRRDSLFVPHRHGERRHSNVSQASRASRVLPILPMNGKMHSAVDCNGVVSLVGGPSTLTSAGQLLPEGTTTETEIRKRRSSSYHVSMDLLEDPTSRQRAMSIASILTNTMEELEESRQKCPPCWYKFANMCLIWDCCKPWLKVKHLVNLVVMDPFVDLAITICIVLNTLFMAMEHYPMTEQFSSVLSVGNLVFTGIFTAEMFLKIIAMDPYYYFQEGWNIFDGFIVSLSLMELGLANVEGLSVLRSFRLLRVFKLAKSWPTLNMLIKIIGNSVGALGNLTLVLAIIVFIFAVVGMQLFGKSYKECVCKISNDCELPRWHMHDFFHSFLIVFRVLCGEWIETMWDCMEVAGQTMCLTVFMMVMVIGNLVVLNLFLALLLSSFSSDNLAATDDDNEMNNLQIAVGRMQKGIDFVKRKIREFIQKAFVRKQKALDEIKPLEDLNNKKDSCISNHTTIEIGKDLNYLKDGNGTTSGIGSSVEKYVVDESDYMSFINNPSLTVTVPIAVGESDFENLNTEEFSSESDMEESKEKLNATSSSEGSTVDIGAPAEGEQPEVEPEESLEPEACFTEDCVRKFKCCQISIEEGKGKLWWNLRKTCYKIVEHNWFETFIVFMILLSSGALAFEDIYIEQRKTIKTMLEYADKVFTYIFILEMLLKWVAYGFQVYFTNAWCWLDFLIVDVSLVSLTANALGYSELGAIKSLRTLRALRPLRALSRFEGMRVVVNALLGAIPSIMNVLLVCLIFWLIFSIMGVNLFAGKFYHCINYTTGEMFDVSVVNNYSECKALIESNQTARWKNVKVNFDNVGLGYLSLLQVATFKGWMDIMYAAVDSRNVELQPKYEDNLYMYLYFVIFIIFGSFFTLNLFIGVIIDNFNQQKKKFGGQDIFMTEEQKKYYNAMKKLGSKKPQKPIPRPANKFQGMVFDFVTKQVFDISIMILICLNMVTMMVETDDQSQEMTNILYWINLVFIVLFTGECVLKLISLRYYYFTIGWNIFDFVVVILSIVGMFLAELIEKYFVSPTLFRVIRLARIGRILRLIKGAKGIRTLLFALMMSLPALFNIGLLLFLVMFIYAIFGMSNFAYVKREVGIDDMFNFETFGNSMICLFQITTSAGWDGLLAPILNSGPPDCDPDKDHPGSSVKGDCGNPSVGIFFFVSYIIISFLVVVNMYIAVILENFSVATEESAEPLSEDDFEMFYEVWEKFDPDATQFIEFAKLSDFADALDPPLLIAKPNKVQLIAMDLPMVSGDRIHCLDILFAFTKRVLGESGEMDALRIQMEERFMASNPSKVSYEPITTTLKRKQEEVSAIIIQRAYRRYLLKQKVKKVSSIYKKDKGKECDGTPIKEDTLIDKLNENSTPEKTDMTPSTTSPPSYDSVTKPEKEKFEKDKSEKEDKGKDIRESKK

Row | SMILES | pKi [1] | Clonic seizure threshold (PTZ dose) [2] [mg/kg] | Tonic seizure threshold (PTZ dose) [3] [mg/kg] | Activity [4]
1 | CC(=O)Nc1ccc(N2C(=O)c3ccccc3C2=O)cc1 | 4.74 | 40.37 | 86.37 | –
2 | O=C1c2ccccc2C(=O)N1c1cccc([N+](=O)[O-])c1 | 4.66 | 64.89 | 96.84 | –
3 | O=C1c2ccccc2C(=O)N1c1ccc([N+](=O)[O-])cc1 | 4.18 | 41.12 | 61.6 | –
4 | COc1ccc(N2C(=O)c3ccccc3C2=O)c([N+](=O)[O-])c1 | 3.97 | 49.4 | 61.92 | –
5 | O=C1NC(=O)C(c2ccccc2)(c2ccccc2)N1 [PHENYTOIN] | – | 49.2 | 115 | inactive
6 | COc1ccc(N2C(=O)c3ccccc3C2=O)c(N)c1 | 4.69 | 56.34 | 98.12 | –
7 | O=C(O)c1ccc(N2C(=O)c3ccccc3C2=O)cc1O | 4.11 | 52.1 | 64.97 | –

Further lines, with some results ahead:

Row | pKi [1] | SMILES | Clonic seizure threshold (PTZ dose) [2] [mg/kg] | Tonic seizure threshold (PTZ dose) [3] [mg/kg] | Activity [4]
8 | 4.21 | NS(=O)(=O)c1nnc(N2C(=O)c3ccccc3C2=O)s1 | 45.14 | 62.35 | –
9 | 3.47 | O=C(O)c1ccccc1N1C(=O)c2ccccc2C1=O [N-PHTHALOYLANTHRANILIC ACID] | 42.95 | 58.08 | –
10 | 3.87 | O=C1c2ccccc2C(=O)N1c1ccccc1[N+](=O)[O-] | 46.34 | 65.66 | –
11 | 4.30 | O=C(O)c1ccc(N2C(=O)c3ccccc3C2=O)cc1 | 46.65 | 79.94 | –
12 | 4.80 | NS(=O)(=O)c1ccc(N2C(=O)c3ccccc3C2=O)cc1 | 33.4 | 60.56 | –
